The values below come from US20230391824A1, “RATIONALE, DESIGN, SYNTHESIS AND VALIDATION OF A SMALL MOLECULE ANTICANCER AGENT” (priority 2021, published 2023).

Series [1] has as its system BHQ1-pre-let7a and EGFP-Lin28A bound complexes. The series is described as follows: FRET assay, displacement of BHQ1-pre-let7a from EGFP-Lin28A. The format is binding. Particulars: at 1 μM; 19B-let7a at 100 nM. As for the experimental part:
This method was adapted from Roos et al (2016). HEK 293-T cells (ATCC) were cultured as monolayers in DMEM GlutaMAX™-1 (Cat #31966-021, Gibco®, Life Technologies) supplemented with 10% of FBS (fetal bovine serum). Stable EGFP-Lin28A HEK 293-T cells were cultured as monolayers in DMEM supplemented with 10% of FBS (fetal bovine serum) and 0.5 mg/ml Geneticin G418 (10131-035, Life Technologies). Transfections were performed according to the manufacturer's protocol with […] (12252-011, Invitrogen, Life Technologies) for siRNAs and JetPEI (101-10, Polyplus transfections) was used for plasmid DNA. […]
160,000 HEK 293 T cells were seeded per well in 6 well plates and transfected with 320 ng pEGFP-C2-Lin28A plasmid according to the experimental setup with the reagents described above and cells were allowed to recover for 48h. […] The EGFP-lin28A| expressing cells were sorted using Fluorescence Activated Cell Sorting (FACS). Finally, larger colonies of individual clones were analyzed for expression levels of EGFP-Lin28A by performing the FRET assay. […]
FRET system (EGFP-Lin28A and 19B-let7a) treated with DMSO was used as positive control. […] The FRET measurements were obtained from the optimized fluorescence parameter. […] The average signal intensity and background fluorescence were corrected with compound self-fluorescence with and without binding buffer.

A further series addresses T1, LIN28B protein (Homo sapiens, UniProt Q6ZN17).
T1 construct: in a panel of endogenously LIN28 expressing cancer cell models; endogenous in cells; host or cells: YP-MEL, BT-12, BT-37, NT-2 (NTERA)
T1 sequence (Q6ZN17 1-250): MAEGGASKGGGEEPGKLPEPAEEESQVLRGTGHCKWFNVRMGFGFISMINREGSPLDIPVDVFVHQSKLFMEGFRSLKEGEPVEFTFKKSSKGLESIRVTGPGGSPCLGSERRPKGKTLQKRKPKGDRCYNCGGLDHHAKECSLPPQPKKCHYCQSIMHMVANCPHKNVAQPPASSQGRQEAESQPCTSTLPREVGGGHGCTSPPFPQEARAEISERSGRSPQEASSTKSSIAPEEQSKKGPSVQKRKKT
Nature of the series: Western blotting of Lin28B protein in cancer cell models. The format is cell-based. The note with it: YP-MEL, BT-37, NT-2 cells; at the tested dosages. As for the experimental part:
FIG. 5: Compound of formula (I) mixture, containing the two isomers (P1+P2) causes significant reduction in Lin28A protein from 5 μM onwards, in a panel of endogenously LIN28 expressing cancer cell models. […] LIN28A and LIN28B expression profile in pediatric CNS cancer cell lines, 96-hr post-treatment with Compound of formula (I). SDS-PAGE on 10% polyacrylamide gel of total cell lysates from untreated cells harvested at 80-90% confluency. Samples loaded with volumes for 20 μg protein. LIN28A and LIN28B proteins were detected using the anti-LIN28A antibody (#8706; Cell Signaling Technology) and anti-LIN28B antibody (#11965; Cell Signalling Technology) at 1:2000 dilutions. T47D: adult breast cancer (LIN28A expressing); YPMEL: malignant melanoma derived from Neurocutaneous Melanosis (NCM) (Lin28A and Lin28B expressing); BT-12: pediatric atypical-teratoid rhabdoid tumor (AT/RT). […]
The proteins were extracted from the same samples as the RNA using the RIPA lysis buffer. […] The proteins were detected using the anti-Lin28A antibody (#8706; Cell Signaling Technology), anti-Lin28B antibody (#11965, Cell Signaling Technology) the anti-beta-actin antibody at respectively 1:2000, 1:2000 and 1:5000 dilutions.

A further series is described as follows: Solubility. Format: physicochemical.

Where two headings read alike, the source gives them in different places.

Take `CC[C@H](C)[C@H](NC(=O)[C@H](Cc1ncc[nH]1)NC(=O)c1cccc(C(N)=O)c1)C(=O)Nc1ccc(O)c(-c2nc3ccccc3s2)c1` [Compound P1]: in series [1], the “reduction in FRET” value worked out at 70%. Moreover, the Lin28B expression entry on LIN28B protein is recorded as “remained unaltered”. Besides, the solubility in “Solubility” (DMSO, organic solvent or mixture, read-out: solubility in DMSO) came to 100 mg/mL; in “Solubility” (organic solvent or mixture, DMSO, freeze dried, RP-HPLC purified P1, read-out: solubility in DMSO) it was 10 mM; in the series “Solubility” (water/PBS/culture medium, aqueous buffer, read-out: solubility in water/PBS/culture medium) it was 0.05 mM.
